The target of this experiment is T1, histamine 3 receptor (H3R) (Homo sapiens, UniProt Q9Y5N1).
T1 construct: expressed in transfected cells; host or cells: CHO cells (HR3-CHO cell line), membrane preparation
In words: Competition binding assay with 3H-(R)α-methylhistamine on membranes of the human HR3-CHO cell line. The note with it: competition with 3H(R)α-Methylhistamine (1 nM), Ki calculated from IC50 by Cheng-Prusoff equation. As to the method: Binding Assay with ^3H-(R)α-methylhistamine
Saturation binding experiments were performed using HR3-CHO membranes prepared as described in Takahashi, K, Tokita, S., Kotani, H. (2003) J. Pharmacol. Exp. Therapeutics 307, 213-218.
An appropriate amount of membrane (60 to 80 μg protein/well) was incubated with increasing concentrations of ^3H(R)α-Methylhistamine di-hydrochloride (0.10 to 10 nM). Non specific binding was determined using a 200 fold excess of cold (R)α-Methylhistamine dihydrobromide (500 nM final concentration). The incubation was carried out at room temperature (in deep-well plates shaking for three hours). The final volume in each well was 250 μl. […] After harvesting, the plates were dried at 55° C. for 60 min, then scintillation fluid (Microscint 40, 40 microl in each well) was added and the amount of radioactivity on the filter was determined with a Packard top-counter after shaking the plates for two hours at 200 rpm at room temperature. • Binding Buffer: 50 mM Tris-HCl pH 7.4 and 5 mM MgCl2x6H2O pH 7.4. […]
An appropriate amount of protein, e.g. approximately 500 cpm binding of RAMH at Kd, were incubated for 1 hour at room temperature in 250 μl final volume in 96-well plates in presence of ^3H(R)α-Methylhistamine (1 nM final concentration=Kd). Non-specific binding was determined using a 200 fold excess of cold (R)α-Methylhistamine dihydrobromide. […]

Each structure is given as a SMILES string.

This passage reports Ki results from patent US7745479B2, “1,5-substituted indol-2-yl amide derivatives” (Hoffmann-La Roche Inc., priority 2005, dated 2010).

T1 sequence (Q9Y5N1 whole entry): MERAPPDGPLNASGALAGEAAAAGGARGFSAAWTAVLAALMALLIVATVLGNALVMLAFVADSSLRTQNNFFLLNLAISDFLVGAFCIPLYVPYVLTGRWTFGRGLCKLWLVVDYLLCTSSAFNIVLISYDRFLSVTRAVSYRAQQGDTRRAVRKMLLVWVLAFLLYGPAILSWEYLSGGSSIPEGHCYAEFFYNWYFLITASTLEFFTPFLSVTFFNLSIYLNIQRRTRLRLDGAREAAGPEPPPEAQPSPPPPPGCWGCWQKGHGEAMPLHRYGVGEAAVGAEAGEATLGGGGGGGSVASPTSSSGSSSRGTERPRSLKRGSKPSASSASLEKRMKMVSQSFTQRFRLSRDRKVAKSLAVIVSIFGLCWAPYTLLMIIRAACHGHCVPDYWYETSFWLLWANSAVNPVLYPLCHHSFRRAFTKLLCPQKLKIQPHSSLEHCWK

With `CC(C)N1CCC(Oc2ccc3c(c2)cc(C(=O)N2CCC(F)(F)CC2)n3-c2ccnc(Cl)c2)CC1` [Example 9, [1-(2-Chloro-pyridin-4-yl)-5-(1-isopropyl-piperidin-4-yloxy)-1H-indol-2-yl]-(4,4-difluoro-piperidin-1-yl)-methanone], the Ki is 2 nM.
